# Source: the NIST ThermoML archive (doi:10.1016/j.fluid.2004.02.021)
# Numbers after ± are expanded uncertainties.
# Details: 283.15 K; Liquid
row,SMILES,vapor or sublimation pressure
1,"ClC(Cl)C(Cl)Cl [1,1,2,2-tetrachloroethane]",0.263 ± 0.008 kPa
2,c1ccccc1 [benzene],6.078 ± 0.045 kPa
3,ClC(Cl)=C(Cl)Cl [tetrachloroethene],1.023 ± 0.023 kPa

# Same assay, conditions: 288.15 K; Liquid
row,SMILES,vapor or sublimation pressure
1,"ClC(Cl)C(Cl)Cl [1,1,2,2-tetrachloroethane]",0.373 ± 0.01 kPa
2,c1ccccc1 [benzene],7.849 ± 0.052 kPa
3,ClC(Cl)=C(Cl)Cl [tetrachloroethene],1.4 ± 0.026 kPa

# Same assay, conditions: 293.15 K; Liquid
row,SMILES,vapor or sublimation pressure
1,"ClC(Cl)C(Cl)Cl [1,1,2,2-tetrachloroethane]",0.521 ± 0.013 kPa
2,c1ccccc1 [benzene],10.03 ± 0.061 kPa
3,ClC(Cl)=C(Cl)Cl [tetrachloroethene],1.861 ± 0.028 kPa

# Same assay, conditions: 298.15 K; Liquid
row,SMILES,vapor or sublimation pressure
1,"ClC(Cl)C(Cl)Cl [1,1,2,2-tetrachloroethane]",0.711 ± 0.017 kPa
2,c1ccccc1 [benzene],12.69 ± 0.072 kPa
3,ClC(Cl)=C(Cl)Cl [tetrachloroethene],2.462 ± 0.03 kPa

# Same assay, conditions: 303.15 K; Liquid
row,SMILES,vapor or sublimation pressure
1,"ClC(Cl)C(Cl)Cl [1,1,2,2-tetrachloroethane]",0.98 ± 0.022 kPa
2,c1ccccc1 [benzene],15.93 ± 0.085 kPa
3,ClC(Cl)=C(Cl)Cl [tetrachloroethene],3.205 ± 0.033 kPa

# Same assay, conditions: 308.15 K; Liquid
row,SMILES,vapor or sublimation pressure
1,"ClC(Cl)C(Cl)Cl [1,1,2,2-tetrachloroethane]",1.289 ± 0.028 kPa
2,c1ccccc1 [benzene],19.81 ± 0.1 kPa
3,ClC(Cl)=C(Cl)Cl [tetrachloroethene],4.117 ± 0.037 kPa

# Same assay, conditions: 313.15 K; Liquid
row,SMILES,vapor or sublimation pressure
1,"ClC(Cl)C(Cl)Cl [1,1,2,2-tetrachloroethane]",1.701 ± 0.027 kPa
2,c1ccccc1 [benzene],24.4 ± 0.12 kPa
3,ClC(Cl)=C(Cl)Cl [tetrachloroethene],5.253 ± 0.041 kPa

# Same assay, conditions: 318.15 K; Liquid
row,SMILES,vapor or sublimation pressure
1,"ClC(Cl)C(Cl)Cl [1,1,2,2-tetrachloroethane]",2.236 ± 0.029 kPa
2,c1ccccc1 [benzene],29.85 ± 0.14 kPa
3,ClC(Cl)=C(Cl)Cl [tetrachloroethene],6.621 ± 0.047 kPa

# Same assay, conditions: 323.15 K; Liquid
row,SMILES,vapor or sublimation pressure
1,"ClC(Cl)C(Cl)Cl [1,1,2,2-tetrachloroethane]",2.86 ± 0.032 kPa
2,c1ccccc1 [benzene],36.24 ± 0.17 kPa
3,ClC(Cl)=C(Cl)Cl [tetrachloroethene],8.286 ± 0.054 kPa
